Test system: rodent lifetime carcinogenesis bioassay, tumor incidence TD50
Assay: chronic cancer bioassays in animals – CPDB, compiled studies (AID 1745844)
Conditions: by gavage

`ClCC(Cl)CCl` was tested. Which TD50 (mouse, strain B6C3F1, females, site: Harderian gland, lesion: adenoma + adenoma, bilateral, dosed 88 weeks, study length 104 weeks) did it give?
Its TD50 is 7.05 mg/kg/day.

What about the TD50 (mouse, strain B6C3F1, females, site: all sites, lesion: histiocytic sarcoma + malignant lymphoma, histiocytic type + malignant lymphoma, mixed type + malignant lymphoma, lymphocytic, dosed 88 weeks, study length 104 weeks) of the same molecule?
The TD50 was 8.64 mg/kg/day.

What about the TD50 (mouse, strain B6C3F1, females, site: all sites, lesion: malignant lymphoma, histiocytic type + malignant lymphoma, mixed type + malignant lymphoma, lymphocytic type + malignant lymph, dosed 88 weeks, study length 104 weeks) of the same molecule?
Its TD50 is 7.08 mg/kg/day.

And the TD50 (mouse, strain B6C3F1, females, site: any site (literature study), lesion: several types, types named in the paper, dosed 88 weeks, study length 104 weeks)?
The TD50 was 0.806 mg/kg/day.

What about the TD50 (mouse, strain B6C3F1, females, site: forestomach + Harderian gland + liver + palate + pharynx + uterus, lesion: squamous-cell carcinoma + squamous-cell papilloma + adenoma + adenoma, bilateral + hepatocellular adenoma + hepatocellular carcino, dosed 88 weeks, study length 104 weeks) of the same molecule?
Its TD50 is 0.826 mg/kg/day.

And the TD50 (mouse, strain B6C3F1, females, site: forestomach, lesion: squamous-cell carcinoma + squamous-cell papilloma, dosed 88 weeks, study length 104 weeks)?
The TD50 was 0.828 mg/kg/day.

And the TD50 (mouse, strain B6C3F1, females, site: forestomach, lesion: squamous-cell carcinoma, dosed 88 weeks, study length 104 weeks)?
The TD50 was 0.97 mg/kg/day.

What about the TD50 (mouse, strain B6C3F1, females, site: forestomach, lesion: squamous-cell papilloma, dosed 88 weeks, study length 104 weeks) of the same molecule?
Its TD50 is 1.64 mg/kg/day.

What about the TD50 (mouse, strain B6C3F1, females, site: liver, lesion: hepatocellular adenoma + hepatoblastoma + hepatocellular carcinoma, dosed 88 weeks, study length 104 weeks) of the same molecule?
The TD50 was 2.93 mg/kg/day.

What about the TD50 (mouse, strain B6C3F1, females, site: liver, lesion: hepatocellular adenoma + hepatocellular carcinoma, dosed 88 weeks, study length 104 weeks) of the same molecule?
The TD50 was 2.93 mg/kg/day.

What about the TD50 (mouse, strain B6C3F1, females, site: liver, lesion: hepatocellular adenoma, dosed 88 weeks, study length 104 weeks) of the same molecule?
Its TD50 is 3.33 mg/kg/day.

What about the TD50 (mouse, strain B6C3F1, females, site: liver, lesion: hepatocellular carcinoma, dosed 88 weeks, study length 104 weeks) of the same molecule?
The TD50 was 28.7 mg/kg/day.

And the TD50 (mouse, strain B6C3F1, females, site: lung, lesion: alveolar/bronchiolar adenoma + alveolar/bronchiolar carcinoma, dosed 88 weeks, study length 104 weeks)?
The TD50 was 14.3 mg/kg/day.

And the TD50 (mouse, strain B6C3F1, females, site: lung, lesion: alveolar/bronchiolar adenoma, dosed 88 weeks, study length 104 weeks)?
Its TD50 is 14.6 mg/kg/day.

And the TD50 (mouse, strain B6C3F1, females, site: palate + pharynx + tongue, lesion: squamous-cell carcinoma + squamous-cell papilloma, dosed 88 weeks, study length 104 weeks)?
The TD50 was 47 mg/kg/day.

What about the TD50 (mouse, strain B6C3F1, females, site: palate + pharynx, lesion: squamous-cell carcinoma, dosed 88 weeks, study length 104 weeks) of the same molecule?
Its TD50 is 154 mg/kg/day.

What about the TD50 (mouse, strain B6C3F1, females, site: uterus, lesion: endometrial stromal polyp, dosed 88 weeks, study length 104 weeks) of the same molecule?
Its TD50 is 22.9 mg/kg/day.

What about the TD50 (mouse, strain B6C3F1, females, site: uterus, lesion: endometrium, adenocarcinoma, dosed 88 weeks, study length 104 weeks) of the same molecule?
The TD50 was 8.47 mg/kg/day.

And the TD50 (mouse, strain B6C3F1, females, site: uterus, lesion: endometrium, adenoma + endometrium, adenocarcinoma, dosed 88 weeks, study length 104 weeks)?
Its TD50 is 6.62 mg/kg/day.

What about the TD50 (mouse, strain B6C3F1, females, site: uterus, lesion: endometrium, adenoma, dosed 88 weeks, study length 104 weeks) of the same molecule?
The TD50 was 34.9 mg/kg/day.

And the TD50 (mouse, strain B6C3F1, males, site: Harderian gland, lesion: adenoma, dosed 90 weeks, study length 104 weeks)?
Its TD50 is 13.7 mg/kg/day.

What about the TD50 (mouse, strain B6C3F1, males, site: any site (literature study), lesion: several types, types named in the paper, dosed 90 weeks, study length 104 weeks) of the same molecule?
Its TD50 is 1.06 mg/kg/day.

What about the TD50 (mouse, strain B6C3F1, males, site: forestomach + Harderian gland + liver, lesion: squamous-cell carcinoma + squamous-cell papilloma + adenoma + hepatocellular adenoma + hepatocellular carcinoma, dosed 90 weeks, study length 104 weeks) of the same molecule?
Its TD50 is 0.996 mg/kg/day.

And the TD50 (mouse, strain B6C3F1, males, site: forestomach, lesion: squamous-cell carcinoma + squamous-cell papilloma, dosed 90 weeks, study length 104 weeks)?
Its TD50 is 0.928 mg/kg/day.

What about the TD50 (mouse, strain B6C3F1, males, site: forestomach, lesion: squamous-cell carcinoma, dosed 90 weeks, study length 104 weeks) of the same molecule?
Its TD50 is 1.34 mg/kg/day.

What about the TD50 (mouse, strain B6C3F1, males, site: forestomach, lesion: squamous-cell papilloma, dosed 90 weeks, study length 104 weeks) of the same molecule?
The TD50 was 1.63 mg/kg/day.

And the TD50 (mouse, strain B6C3F1, males, site: liver, lesion: hepatocellular adenoma + hepatoblastoma + hepatocellular carcinoma, dosed 90 weeks, study length 104 weeks)?
Its TD50 is 2.13 mg/kg/day.

And the TD50 (mouse, strain B6C3F1, males, site: liver, lesion: hepatocellular adenoma + hepatocellular carcinoma, dosed 90 weeks, study length 104 weeks)?
Its TD50 is 2.13 mg/kg/day.

And the TD50 (mouse, strain B6C3F1, males, site: liver, lesion: hepatocellular adenoma, dosed 90 weeks, study length 104 weeks)?
The TD50 was 2.87 mg/kg/day.

What about the TD50 (mouse, strain B6C3F1, males, site: liver, lesion: hepatocellular carcinoma, dosed 90 weeks, study length 104 weeks) of the same molecule?
Its TD50 is 6.28 mg/kg/day.

What about the TD50 (mouse, strain B6C3F1, males, site: lung, lesion: alveolar/bronchiolar adenoma + alveolar/bronchiolar carcinoma, dosed 90 weeks, study length 104 weeks) of the same molecule?
The TD50 was 9.32 mg/kg/day.

What about the TD50 (mouse, strain B6C3F1, males, site: lung, lesion: alveolar/bronchiolar adenoma, dosed 90 weeks, study length 104 weeks) of the same molecule?
Its TD50 is 11.2 mg/kg/day.

What about the TD50 (mouse, strain B6C3F1, males, site: tongue, lesion: squamous-cell papilloma, dosed 90 weeks, study length 104 weeks) of the same molecule?
Its TD50 is 454 mg/kg/day.

And the TD50 (rat, strain Fischer 344, females, site: Zymbal's gland, lesion: carcinoma, dosed 91 weeks, study length 105 weeks)?
Its TD50 is 59 mg/kg/day.

What about the TD50 (rat, strain Fischer 344, females, site: all sites, lesion: mononuclear-cell leukemia, dosed 91 weeks, study length 105 weeks) of the same molecule?
Its TD50 is 7.11 mg/kg/day.

What about the TD50 (rat, strain Fischer 344, females, site: any site (literature study), lesion: several types, types named in the paper, dosed 91 weeks, study length 105 weeks) of the same molecule?
Its TD50 is 1.02 mg/kg/day.

And the TD50 (rat, strain Fischer 344, females, site: clitoral gland + forestomach + mammary gland + palate + pharynx + tongue + Zymbal's gland, lesion: adenoma + adenoma, bilateral + carcinoma + carcinoma, bilateral + squamous-cell carcinoma + squamous-cell papilloma + adenocarcinoma, dosed 91 weeks, study length 105 weeks)?
The TD50 was 1.07 mg/kg/day.

What about the TD50 (rat, strain Fischer 344, females, site: clitoral gland, lesion: adenoma + adenoma, bilateral + carcinoma + carcinoma, bilateral, dosed 91 weeks, study length 105 weeks) of the same molecule?
The TD50 was 3.58 mg/kg/day.

What about the TD50 (rat, strain Fischer 344, females, site: clitoral gland, lesion: adenoma + adenoma, bilateral, dosed 91 weeks, study length 105 weeks) of the same molecule?
The TD50 was 4.04 mg/kg/day.

And the TD50 (rat, strain Fischer 344, females, site: clitoral gland, lesion: carcinoma + carcinoma, bilateral, dosed 91 weeks, study length 105 weeks)?
The TD50 was 49.5 mg/kg/day.

And the TD50 (rat, strain Fischer 344, females, site: colon + jejunum, lesion: adenocarcinoma, dosed 91 weeks, study length 105 weeks)?
Its TD50 is 78.4 mg/kg/day.

What about the TD50 (rat, strain Fischer 344, females, site: forestomach, lesion: squamous-cell carcinoma + squamous-cell papilloma, dosed 91 weeks, study length 105 weeks) of the same molecule?
The TD50 was 1.64 mg/kg/day.

And the TD50 (rat, strain Fischer 344, females, site: forestomach, lesion: squamous-cell carcinoma, dosed 91 weeks, study length 105 weeks)?
The TD50 was 7.77 mg/kg/day.

What about the TD50 (rat, strain Fischer 344, females, site: forestomach, lesion: squamous-cell papilloma, dosed 91 weeks, study length 105 weeks) of the same molecule?
The TD50 was 1.94 mg/kg/day.

What about the TD50 (rat, strain Fischer 344, females, site: liver, lesion: hepatocellular adenoma + hepatoblastoma + hepatocellular carcinoma, dosed 91 weeks, study length 105 weeks) of the same molecule?
The TD50 was 81.4 mg/kg/day.

And the TD50 (rat, strain Fischer 344, females, site: mammary gland, lesion: adenocarcinoma + adenoma + fibroadenoma, dosed 91 weeks, study length 105 weeks)?
The TD50 was 1.98 mg/kg/day.

What about the TD50 (rat, strain Fischer 344, females, site: mammary gland, lesion: adenocarcinoma + adenoma, dosed 91 weeks, study length 105 weeks) of the same molecule?
The TD50 was 5.5 mg/kg/day.

What about the TD50 (rat, strain Fischer 344, females, site: mammary gland, lesion: adenocarcinoma, dosed 91 weeks, study length 105 weeks) of the same molecule?
Its TD50 is 5.91 mg/kg/day.

What about the TD50 (rat, strain Fischer 344, females, site: mammary gland, lesion: adenoma + fibroadenoma, dosed 91 weeks, study length 105 weeks) of the same molecule?
The TD50 was 3.32 mg/kg/day.
